Assay results taken from patent US10550111B2, “Pyrimidine urea compound containing isoxazolines and use thereof” (SHENYANG SINOCHEM AGROCHEMICALS R&D CO., LTD, priority 2014, dated 2020).

Legend:
Assay type in all cases: in vivo
[1] = system: broad-leaf weeds and grass weeds; assay: General screening of herbicidal activity in greenhouse; conditions: 1000 g a.i./hm^2;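 also: 0 means no visible effect and 100 means all weeds dead or not emerged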
How it was run: (§1)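 Visual growth inhibition rating (0–100%; 100 = weeds dead or not emerged) after track-sprayer application of compounds formulated as emulsifiable concentrates. Sprays given 24 h post-sowing (pre-emergence) or at 2–3-leaf (grasses) / 2–4-leaf (broad-leaves) stage, greenhouse-grown plants.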

[2] = system: Setaria glauca (L.) Beauv.; assay: Bioassay of herbicidal activity in greenhouse (further screening)
How it was run: as §1

[3] = system: Echinochloa crus-galli (L.) Beauv.; assay: as above
How it was run: as §1

[4] = system: Abutilon theophrasti Medic.; assay: as above
How it was run: as §1

Zinnia elegans Jacq. = assay: as above
How it was run: as §1

wheat = assay: Crop safety study in greenhouse; conditions: 7.5-37.5 g a.i./hm^2; pre-emergence and post-emergence application
Text: (§2) Seeds of soybean, cotton, maize, wheat and rice were sown in nutrition soil in paper pot (9 cm diameter), covered with soil in 1 cm and grown in the greenhouse under good growth conditions (temperature, atmospheric humidity, water supply). The compounds of the present invention as emulsifiable concentrate, were applied in pre-emergence and post-emergence treatment by track sprayer (Engineer Research Ltd., pressure 1.95 kg/cm^2, volume 500 L/hm^2, track speed 1.48 km/h). Pre-emergence treatment was conducted after seeding 24 hours and post-emergence treatment was done when the respective weeds reached predetermined leaf stage (soybean and cotton at 2- to 4-leaf stage and maize, wheat and rice at 3-leaf stage), the state of growth of the respective crops were visually observed to determine the safety in accordance with the following evaluation standard.
(§3) Safety rating scale (%): 0 means no damage to crops; 100 means to kill crops completely.

rice = assay: Crop safety study in greenhouse; conditions: 7.5-37.5 g a.i./hm^2; pre-emergence and post-emergence application
Text: as §2, §3

maize = assay: Crop safety study in greenhouse; conditions: 7.5-37.5 g a.i./hm^2; pre-emergence and post-emergence application
Text: as §2, §3

Cn1c(C(F)(F)F)cc(=O)n(-c2cc(C3=NOC(C)(COC(=O)C4CC4)C3)c(Cl)cc2F)c1=O (centres unmarked) [Compound 45]
pre-emergence and post-emergence herbicidal activity against broad-leaf weeds and grass weeds [1]: good | Growth inhibition rate, Post-emergence treatment, Setaria glauca (L.) Beauv. ([2]; dose 7.5 g a.i./hm^2): 30% | Growth inhibition rate, Post-emergence treatment, Setaria glauca (L.) Beauv. ([2]; dose 15 g a.i./hm^2): 45% | Growth inhibition rate, Post-emergence treatment, Setaria glauca (L.) Beauv. ([2]; dose 37.5 g a.i./hm^2): 50% | Growth inhibition rate, Post-emergence treatment, Setaria glauca (L.) Beauv. ([2]; dose 150 g a.i./hm^2): 85% | Growth inhibition rate, Post-emergence treatment, Setaria glauca (L.) Beauv. ([2]; dose 600 g a.i./hm^2): 98% | Growth inhibition rate, Pre-emergence treatment, Setaria glauca (L.) Beauv. ([2]; dose 7.5 g a.i./hm^2): 70% | Growth inhibition rate, Pre-emergence treatment, Setaria glauca (L.) Beauv. ([2]; dose 15 g a.i./hm^2): 80% | Growth inhibition rate, Pre-emergence treatment, Setaria glauca (L.) Beauv. ([2]; dose 37.5 g a.i./hm^2): 95% | Growth inhibition rate, Pre-emergence treatment, Setaria glauca (L.) Beauv. ([2]; dose 150 g a.i./hm^2): 90% | Growth inhibition rate, Pre-emergence treatment, Setaria glauca (L.) Beauv. ([2]; dose 600 g a.i./hm^2): 100% | Growth inhibition rate, Post-emergence treatment, Echinochloa crus-galli (L.) Beauv. ([3]; dose 7.5 g a.i./hm^2): 15% | Growth inhibition rate, Post-emergence treatment, Echinochloa crus-galli (L.) Beauv. ([3]; dose 15 g a.i./hm^2): 15% | Growth inhibition rate, Post-emergence treatment, Echinochloa crus-galli (L.) Beauv. ([3]; dose 37.5 g a.i./hm^2): 25% | Growth inhibition rate, Post-emergence treatment, Echinochloa crus-galli (L.) Beauv. ([3]; dose 150 g a.i./hm^2): 80% | Growth inhibition rate, Post-emergence treatment, Echinochloa crus-galli (L.) Beauv. ([3]; dose 600 g a.i./hm^2): 100% | Growth inhibition rate, Pre-emergence treatment, Echinochloa crus-galli (L.) Beauv. ([3]; dose 7.5 g a.i./hm^2): 5% | Growth inhibition rate, Pre-emergence treatment, Echinochloa crus-galli (L.) Beauv. ([3]; dose 15 g a.i./hm^2): 10% | Growth inhibition rate, Pre-emergence treatment, Echinochloa crus-galli (L.) Beauv. ([3]; dose 37.5 g a.i./hm^2): 20% | Growth inhibition rate, Pre-emergence treatment, Echinochloa crus-galli (L.) Beauv. ([3]; dose 150 g a.i./hm^2): 85% | Growth inhibition rate, Pre-emergence treatment, Echinochloa crus-galli (L.) Beauv. ([3]; dose 600 g a.i./hm^2): 100% | Growth inhibition rate, Post-emergence treatment, Abutilon theophrasti Medic. ([4]; dose 7.5 g a.i./hm^2): 98% | Growth inhibition rate, Post-emergence treatment, Abutilon theophrasti Medic. ([4]; dose 15 g a.i./hm^2): 100% | Growth inhibition rate, Post-emergence treatment, Abutilon theophrasti Medic. ([4]; dose 37.5 g a.i./hm^2): 100% | Growth inhibition rate, Post-emergence treatment, Abutilon theophrasti Medic. ([4]; dose 150 g a.i./hm^2): 100% | Growth inhibition rate, Post-emergence treatment, Abutilon theophrasti Medic. ([4]; dose 600 g a.i./hm^2): 100% | Growth inhibition rate, Pre-emergence treatment, Abutilon theophrasti Medic. ([4]; dose 7.5 g a.i./hm^2): 98% | Growth inhibition rate, Pre-emergence treatment, Abutilon theophrasti Medic. ([4]; dose 15 g a.i./hm^2): 100% | Growth inhibition rate, Pre-emergence treatment, Abutilon theophrasti Medic. ([4]; dose 37.5 g a.i./hm^2): 95% | Growth inhibition rate, Pre-emergence treatment, Abutilon theophrasti Medic. ([4]; dose 150 g a.i./hm^2): 100% | Growth inhibition rate, Pre-emergence treatment, Abutilon theophrasti Medic. ([4]; dose 600 g a.i./hm^2): 100% | Growth inhibition rate, Post-emergence treatment, Zinnia elegans Jacq. (Zinnia elegans Jacq.; dose 7.5 g a.i./hm^2): 95% | Growth inhibition rate, Post-emergence treatment, Zinnia elegans Jacq. (Zinnia elegans Jacq.; dose 15 g a.i./hm^2): 100% | Growth inhibition rate, Post-emergence treatment, Zinnia elegans Jacq. (Zinnia elegans Jacq.; dose 37.5 g a.i./hm^2): 100% | Growth inhibition rate, Post-emergence treatment, Zinnia elegans Jacq. (Zinnia elegans Jacq.; dose 150 g a.i./hm^2): 100% | Growth inhibition rate, Post-emergence treatment, Zinnia elegans Jacq. (Zinnia elegans Jacq.; dose 600 g a.i./hm^2): 100% | Growth inhibition rate, Pre-emergence treatment, Zinnia elegans Jacq. (Zinnia elegans Jacq.; dose 7.5 g a.i./hm^2): 20% | Growth inhibition rate, Pre-emergence treatment, Zinnia elegans Jacq. (Zinnia elegans Jacq.; dose 15 g a.i./hm^2): 20% | Growth inhibition rate, Pre-emergence treatment, Zinnia elegans Jacq. (Zinnia elegans Jacq.; dose 37.5 g a.i./hm^2): 90% | Growth inhibition rate, Pre-emergence treatment, Zinnia elegans Jacq. (Zinnia elegans Jacq.; dose 150 g a.i./hm^2): 95% | Growth inhibition rate, Pre-emergence treatment, Zinnia elegans Jacq. (Zinnia elegans Jacq.; dose 600 g a.i./hm^2): 100% | Crop safety, wheat (wheat): good safety | Crop safety, rice (rice): good safety | Crop safety, maize (maize): good safety
